Results on 1 compound are retold here after patent publication US20240417404A1, “CRYSTALLINE FORMS OF N-[4-[4-(4-MORPHOLINYL)-7H-PYRROLO[2,3-d]PYRIMIDIN-6-YL]PHENYL]-4-[[3(R)-[(1-OXO-2-PROPEN-1-YL)AMINO]-1-[sequence]]METHYL]-2-PYRIDINECARBOXAMIDE AS IRREVERSIBLE INHIBITORS OF MENIN-MLL INTERACTION” (BIOMEA FUSION, INC., priority 2023, published 2024).

Values after ≈ are worked out from the molar mass of the structure shown.

A short description of data set [1]: physchem. To be noted: pH 4.5, aqueous buffer, observed aqueous solubility.
Data set [2] in a line: Solubility of Compound A crystalline forms in aqueous buffers and biorelevant media. Particulars: aqueous buffer, solubility, water, pH 4.5 acetate buffer, pH 6.8 phosphate buffer, pH 5.0 FeSSIF-v1 and pH 6.5 FaSSIF-v1.
Data set [3] can be described thus: Hygroscopicity (water absorption versus relative humidity). Particulars: from 40% RH to 70% RH at 25° C. It is filed as physicochemical.
The nature of data set [4]: Solid form stability (XRPD after storage, conversion in MeOH/water, thermal). It is filed as physicochemical. As for the experimental part:
X-ray powder diffraction patterns were collected on a Bruker AXS C2 GADDS or Bruker AXS D8 diffractometer.
X-ray Powder Diffraction patterns were collected on a Bruker AXS C2 GADDS diffractometer using Cu Kα radiation (40 kV, 40 mA), automated XYZ stage, laser video microscope for auto-sample positioning, and a HiStar 2-dimensional area detector. X-ray optics consists of a single Göbel multilayer mirror coupled with a pinhole collimator of 0.3 mm. A weekly performance check is carried out using a certified standard NIST 1976 Corundum (flat plate). The beam divergence (i.e., the effective size of the X-ray beam on the sample) was approximately 4 mm. A θ-θ continuous scan mode was employed with a sample—detector distance of 20 cm which gives an effective 2θ range of 3.2°-29.7°. Typically the sample would be exposed to the X-ray beam for 120 seconds. The software used for data collection was GADDS for WNT 4.1.16 and the data were analyzed and presented using Diffrac Plus EVA v11.0.0.2 or v13.0.0.2.
X-ray Powder Diffraction patterns were collected on a Bruker D8 diffractometer using Cu Kα radiation (40 kV, 40 mA), θ-2θ goniometer, and divergence of V4 and receiving slits, a Ge monochromator and a Lynxeye detector. The instrument is performance checked using a certified Corundum standard (NIST 1976). The software used for data collection was Diffrac Plus XRD Commander v2.5.0 and the data were analysed and presented using Diffrac Plus EVA v11.0.0.2 or v13.0.0.2. Samples were run under ambient conditions as flat plate specimens using powder as received. The sample was gently packed into a cavity cut into a polished, zero-background (510) silicon wafer. The sample was rotated via its own plane during analysis. The details of the data collection are: • Angular range: 2 to 42 02θ • Step size: 0.05 02θ • Collection time: 0.5 s/step

By solubility is commonly meant how much of the substance goes into solution per volume. Lower therefore signals little dissolved substance. Take `C=CC(=O)N[C@@H]1CCCN(Cc2ccnc(C(=O)Nc3ccc(-c4cc5c(N6CCOCC6)ncnc5[nH]4)cc3)c2)C1` [Form K, N-[4-[4-(4-morpholinyl)-7H-pyrrolo[2,3-d]pyrimidin-6-yl]phenyl]-4-[[3(R)-[(1-oxo-2-propen-1-yl)amino]-1-piperidinyl]methyl]-2-pyridinecarboxamide]: the solubility was about 4 µg/mL (≈ 7.06 µM) in data set [1] and under 35 µg/mL in data set [2]. Further, the “observed hygroscopicity and absorption of water” value in data set [3] is “about 2.1%”. Also, the “XRPD pattern post storage” value in data set [4] (closed container at 60° C. and 75% RH for at least a week) is “substantially the same X-ray powder diffraction (XRPD) pattern”; in data set [4] (open container at 25° C. and 92% RH for at least a week), “substantially the same X-ray powder diffraction (XRPD) pattern”; in data set [4] (open container at 40° C. and 75% RH for at least a week), “substantially the same X-ray powder diffraction (XRPD) pattern”. The Stability entry in data set [4] (polymorph stability, K converted into Pattern D in MeOH/water mixture (water activity from 0 to 1), listed as K) was “Low-Converted into”. Further, the “Stability (thermal)” value in data set [4] (thermal) was “But thermally very stable”.
